Experimental data published in the supplement of paper PMC12494721.
Counter-ions that a name gives are not always drawn.

Experiments:
Details in all cases: incubation time: 27 h, anaerobic, 37 °C
[1] = tested on: Escherichia coli IAI1; test: fold change of Putrescine concentration vs plate DMSO controls (fold change (ratio)); higher = more amine produced
[2] = tested on: Escherichia coli IAI1; test: fold change of Cadaverine concentration vs plate DMSO controls (fold change (ratio)); higher = more amine produced
[3] = tested on: Escherichia coli IAI1; test: growth (OD595) fold change vs plate DMSO controls (fold change (ratio)); higher = more growth
[4] = tested on: Clostridium sporogenes DSM 1664; test: fold change of Tryptamine concentration vs plate DMSO controls (fold change (ratio)); higher = more amine produced
[5] = tested on: Clostridium sporogenes DSM 1664; test: growth (OD595) fold change vs plate DMSO controls (fold change (ratio)); higher = more growth
[6] = tested on: Ruminococcus gnavus DSM 108212; test: fold change of 2-Phenylethylamine concentration vs plate DMSO controls (fold change (ratio)); higher = more amine produced
[7] = tested on: Ruminococcus gnavus DSM 108212; test: fold change of Tryptamine concentration vs plate DMSO controls (fold change (ratio)); higher = more amine produced
[8] = tested on: Ruminococcus gnavus DSM 108212; test: growth (OD595) fold change vs plate DMSO controls (fold change (ratio)); higher = more growth

| SMILES | fold change of Putrescine concentration ([1]; 0.6125 µM) | fold change of Putrescine concentration ([1]; 1.25 µM) | fold change of Putrescine concentration ([1]; 2.5 µM) | fold change of Putrescine concentration ([1]; 5 µM) | fold change of Putrescine concentration ([1]; 10 µM) | fold change of Putrescine concentration ([1]; 20 µM) | fold change of Cadaverine concentration ([2]; 0.6125 µM) | fold change of Cadaverine concentration ([2]; 1.25 µM) | fold change of Cadaverine concentration ([2]; 2.5 µM) | fold change of Cadaverine concentration ([2]; 5 µM) | fold change of Cadaverine concentration ([2]; 10 µM) | fold change of Cadaverine concentration ([2]; 20 µM) | growth ([3]; 0.6125 µM) | growth ([3]; 1.25 µM) | growth ([3]; 2.5 µM) | growth ([3]; 5 µM) | growth ([3]; 10 µM) | growth ([3]; 20 µM) | fold change of Tryptamine concentration ([4]; 0.6125 µM) | fold change of Tryptamine concentration ([4]; 1.25 µM) | other results |
| --- | --- | --- | --- | --- | --- | --- | --- | --- | --- | --- | --- | --- | --- | --- | --- | --- | --- | --- | --- | --- | --- |
| C=CC1=C(C(=O)O)N2C(=O)[C@@H](NC(=O)/C(=N\O)c3csc(N)n3)[C@H]2SC1 [Cefdinir] | 0.759 | 0.836 | 1.47 | 0.282 | 0.152 | 0.342 | 1.1 | 1.18 | 1.98 | 0.812 | 0.533 | 1.17 | 0.899 | 0.905 | 0.0538 | -0.042 | -0.0507 | -0.0475 | – | – | – |
| C=CC1=C(C(=O)O)N2C(=O)[C@@H](NC(=O)/C(=N\OCC(=O)O)c3csc(N)n3)[C@H]2SC1 [Cefixime] | 0.815 | 0.897 | 0.839 | 2.82 | 1.37 | 1.16 | 1.07 | 1.07 | 1.72 | 2.01 | 2.2 | 2.17 | 0.848 | 0.903 | 0.859 | 0.193 | 0.0344 | -0.00514 | 0.977 | 0.994 | fold change of Tryptamine concentration ([4]; 2.5 µM): 0.974; fold change of Tryptamine concentration ([4]; 5 µM): 0.937; fold change of Tryptamine concentration ([4]; 10 µM): 0.925; fold change of Tryptamine concentration ([4]; 20 µM): 0.887; growth ([5]; 0.6125 µM): 1.05; growth ([5]; 1.25 µM): 1.02; growth ([5]; 2.5 µM): 0.842; growth ([5]; 5 µM): 0.82; growth ([5]; 10 µM): 0.675; growth ([5]; 20 µM): 0.527 |
| CCN1CCN(C(=O)N[C@@H](C(=O)N[C@@H]2C(=O)N3C(C(=O)O)=C(CSc4nnnn4C)CS[C@H]23)c2ccc(O)cc2)C(=O)C1=O [Cefoperazone dihydrate] | 0.765 | 0.851 | 3.2 | 1.77 | 1.11 | 1.04 | 1.07 | 1.12 | 1.82 | 2.14 | 2.27 | 2.17 | 0.9 | 0.914 | 0.514 | 0.0751 | 0.0151 | -0.0235 | – | – | fold change of 2-Phenylethylamine concentration ([6]; 0.6125 µM): 0.866; fold change of 2-Phenylethylamine concentration ([6]; 1.25 µM): 0.808; fold change of 2-Phenylethylamine concentration ([6]; 2.5 µM): 0.387; fold change of 2-Phenylethylamine concentration ([6]; 5 µM): 0.153; fold change of 2-Phenylethylamine concentration ([6]; 10 µM): 0.105; fold change of 2-Phenylethylamine concentration ([6]; 20 µM): 0.0986; fold change of Tryptamine concentration ([7]; 0.6125 µM): 1.01; fold change of Tryptamine concentration ([7]; 1.25 µM): 0.955; fold change of Tryptamine concentration ([7]; 2.5 µM): 0.568; fold change of Tryptamine concentration ([7]; 5 µM): 0.22; fold change of Tryptamine concentration ([7]; 10 µM): 0.14; fold change of Tryptamine concentration ([7]; 20 µM): 0.124; growth ([8]; 0.6125 µM): 1.55; growth ([8]; 1.25 µM): 1.15; growth ([8]; 2.5 µM): 0.937; growth ([8]; 5 µM): 0.627; growth ([8]; 10 µM): 0.478; growth ([8]; 20 µM): 0.345 |
| CO/N=C(\C(=O)N[C@@H]1C(=O)N2C(C(=O)[O-])=C(C[n+]3ccn4ncccc43)CS[C@H]12)c1nsc(N)n1 [Cefozopran hydrochloride] | 0.772 | 0.919 | 0.717 | 0.793 | 1.12 | 2.17 | 0.986 | 0.959 | 0.929 | 0.962 | 1.38 | 2.16 | 0.818 | 0.863 | 1.06 | 1.12 | 1.15 | 0.238 | – | – | fold change of 2-Phenylethylamine concentration ([6]; 0.6125 µM): 0.623; fold change of 2-Phenylethylamine concentration ([6]; 1.25 µM): 0.361; fold change of 2-Phenylethylamine concentration ([6]; 2.5 µM): 0.162; fold change of 2-Phenylethylamine concentration ([6]; 5 µM): 0.105; fold change of 2-Phenylethylamine concentration ([6]; 10 µM): 0.101; fold change of 2-Phenylethylamine concentration ([6]; 20 µM): 0.0948; fold change of Tryptamine concentration ([7]; 0.6125 µM): 0.714; fold change of Tryptamine concentration ([7]; 1.25 µM): 0.52; fold change of Tryptamine concentration ([7]; 2.5 µM): 0.275; fold change of Tryptamine concentration ([7]; 5 µM): 0.16; fold change of Tryptamine concentration ([7]; 10 µM): 0.148; fold change of Tryptamine concentration ([7]; 20 µM): 0.135; growth ([8]; 0.6125 µM): 1.24; growth ([8]; 1.25 µM): 0.965; growth ([8]; 2.5 µM): 1.03; growth ([8]; 5 µM): 1.06; growth ([8]; 10 µM): 1.24; growth ([8]; 20 µM): 0.529 |
| CO/N=C(\C(=O)N[C@@H]1C(=O)N2C(C(=O)O)=C(COC(N)=O)CS[C@H]12)c1ccco1 [Cefuroxime sodium salt] | 0.907 | 0.853 | 0.758 | 1.11 | 2.59 | 1.24 | 1.11 | 1.13 | 1.09 | 2.02 | 2.06 | 2.13 | 0.872 | 0.929 | 1.03 | 0.923 | 0.171 | 0.0264 | 1.01 | 1.01 | fold change of Tryptamine concentration ([4]; 2.5 µM): 1.04; fold change of Tryptamine concentration ([4]; 5 µM): 0.764; fold change of Tryptamine concentration ([4]; 10 µM): 0.0406; fold change of Tryptamine concentration ([4]; 20 µM): 0.0242; growth ([5]; 0.6125 µM): 0.8; growth ([5]; 1.25 µM): 0.69; growth ([5]; 2.5 µM): 0.755; growth ([5]; 5 µM): 0.214; growth ([5]; 10 µM): -0.0277; growth ([5]; 20 µM): -0.0443 |
